Test results published in the NIST ThermoML archive (doi:10.1021/je600578u).
± gives the expanded uncertainty stated by the source.

Tests used:
[1] = 298.15 K; 101.33 kPa; Liquid
[2] = refractive index (Na D-line) (dimensionless); conditions: 298.15 K; 101.33 kPa; Liquid; Standard Abbe refractometry

Row | Compound | mass density [1] | refractive index [2]
1 | c1ccccc1 [benzene] | 873.57 ± 0.96 kg/m3 | 1.49764 ± 0.00054
2 | CCO [ethanol] | 785.27 ± 0.98 kg/m3 | 1.35928 ± 0.00052
